In data set [1] the target is Voltage-gated inwardly rectifying potassium channel KCNH2 (Homo sapiens, UniProt Q12809).
A short description of data set [2]: Intrinsic clearance in rat liver microsomes assessed per mg of protein. Type of data set: ADME, Microsome. On the technique in general: Liver microsomes are vesicles of endoplasmic reticulum, rich in cytochrome P450 enzymes.
The nature of data set [3]: Inhibition of hedgehog signaling pathway in mouse Shh Light2 cells by Gli-dependent reporter gene assay. The class given is functional, cell-based. The settings on record: Shh Light II. For orientation: A reporter such as luciferase makes a cellular process visible.
Data set [4] addresses T1, Protein smoothened (Homo sapiens, UniProt Q99835). The data set can be described thus: Displacement of BODIPY-cyclopamine from Smo expressed in COS-1 cells after 4 to 6 hrs by Flow Cytometry analysis in presence of 2% fetal calf serum. The class given is cell-based. A general note: In flow cytometry, cells or beads pass a laser one at a time.
Data set [5] has as its target T1, Protein smoothened. Briefly: Displacement of BODIPY-cyclopamine from Smo expressed in COS-1 cells after 4 to 6 hrs by Flow Cytometry analysis in presence of 20% normal human serum. Type of data set: cell-based.
Data set [6] in a line: Lipophilicity, log D of the compound. Type of data set: physicochemical. The settings on record: octanol/water.
The nature of data set [7]: Intrinsic clearance in human liver microsomes assessed per mg of protein. The class given is ADME, Microsome.
Data set [8] can be described thus: Clearance in iv dosed rat. The class given is ADME, organism-based. The conditions noted are these: in vivo.

Each structure is given as a SMILES string.

Chain of Voltage-gated inwardly rectifying potassium channel KCNH2 (Q12809 whole entry): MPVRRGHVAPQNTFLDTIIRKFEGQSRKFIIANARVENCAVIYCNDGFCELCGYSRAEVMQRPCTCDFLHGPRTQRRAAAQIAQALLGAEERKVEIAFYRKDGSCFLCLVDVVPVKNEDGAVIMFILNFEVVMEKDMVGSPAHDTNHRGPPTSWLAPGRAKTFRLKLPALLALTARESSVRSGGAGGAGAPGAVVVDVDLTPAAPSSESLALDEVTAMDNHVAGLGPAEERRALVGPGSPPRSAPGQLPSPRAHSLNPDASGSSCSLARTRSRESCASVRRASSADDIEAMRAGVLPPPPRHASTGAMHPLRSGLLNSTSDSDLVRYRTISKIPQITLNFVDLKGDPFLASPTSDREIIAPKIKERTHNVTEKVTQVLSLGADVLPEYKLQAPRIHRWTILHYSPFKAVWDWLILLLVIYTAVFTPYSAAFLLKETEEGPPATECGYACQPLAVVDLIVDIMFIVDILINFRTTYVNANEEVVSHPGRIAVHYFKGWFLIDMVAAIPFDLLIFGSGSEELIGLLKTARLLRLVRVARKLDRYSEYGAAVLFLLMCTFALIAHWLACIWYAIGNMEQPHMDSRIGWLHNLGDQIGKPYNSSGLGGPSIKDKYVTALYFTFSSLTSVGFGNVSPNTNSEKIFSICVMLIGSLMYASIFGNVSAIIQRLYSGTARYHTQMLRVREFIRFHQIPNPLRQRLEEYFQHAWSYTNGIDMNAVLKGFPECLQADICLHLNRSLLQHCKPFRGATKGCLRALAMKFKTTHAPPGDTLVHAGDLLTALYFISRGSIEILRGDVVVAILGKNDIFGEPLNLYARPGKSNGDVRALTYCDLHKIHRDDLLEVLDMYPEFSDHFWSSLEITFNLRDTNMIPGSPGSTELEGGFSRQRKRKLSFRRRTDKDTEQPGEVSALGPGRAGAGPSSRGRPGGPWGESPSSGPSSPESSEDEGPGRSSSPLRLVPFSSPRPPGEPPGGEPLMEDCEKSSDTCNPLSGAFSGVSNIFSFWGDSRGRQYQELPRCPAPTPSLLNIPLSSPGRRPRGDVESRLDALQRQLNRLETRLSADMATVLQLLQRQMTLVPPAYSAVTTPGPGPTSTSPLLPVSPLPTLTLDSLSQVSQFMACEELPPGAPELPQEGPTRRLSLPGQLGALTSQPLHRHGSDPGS
T1 sequence (Q99835 whole entry): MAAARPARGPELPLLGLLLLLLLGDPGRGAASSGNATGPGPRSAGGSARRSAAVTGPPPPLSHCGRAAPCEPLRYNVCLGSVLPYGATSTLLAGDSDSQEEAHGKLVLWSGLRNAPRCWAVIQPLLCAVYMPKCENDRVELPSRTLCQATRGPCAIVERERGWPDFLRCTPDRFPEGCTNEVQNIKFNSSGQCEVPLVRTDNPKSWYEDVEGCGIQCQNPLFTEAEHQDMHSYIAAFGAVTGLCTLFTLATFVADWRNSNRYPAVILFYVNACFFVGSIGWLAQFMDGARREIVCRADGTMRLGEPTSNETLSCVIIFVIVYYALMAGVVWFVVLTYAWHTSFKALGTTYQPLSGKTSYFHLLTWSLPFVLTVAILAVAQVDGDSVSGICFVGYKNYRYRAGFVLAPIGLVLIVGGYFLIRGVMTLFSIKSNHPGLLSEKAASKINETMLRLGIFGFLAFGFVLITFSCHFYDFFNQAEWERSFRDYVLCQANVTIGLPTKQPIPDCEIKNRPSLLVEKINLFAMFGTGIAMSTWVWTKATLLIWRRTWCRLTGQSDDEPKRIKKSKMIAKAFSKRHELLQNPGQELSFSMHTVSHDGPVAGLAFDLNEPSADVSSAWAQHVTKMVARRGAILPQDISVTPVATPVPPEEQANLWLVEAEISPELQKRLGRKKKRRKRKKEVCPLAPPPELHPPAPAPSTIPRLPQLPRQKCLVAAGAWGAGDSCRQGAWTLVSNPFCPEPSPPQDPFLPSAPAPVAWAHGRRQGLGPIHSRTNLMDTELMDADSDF

The term IC50 denotes the concentration that gives 50% inhibition. The microsomal CLint is a measure of how fast metabolising enzymes remove a compound, apart from limits set by blood flow. Usually logD stands for lipophilicity at a set pH, counting ionised and neutral species. High values mean a more lipophilic compound, low ones a more hydrophilic compound. As to `O=C(NCC1(N2CCOCC2)CCCC1)N1CCC(c2nc(-c3ccc4ccccc4n3)no2)CC1`, the IC50 is 10000 nM in data set [1], 46 nM in data set [3], 30 nM in data set [4] and 100 nM in data set [5]. Moreover, the microsomal CLint was > 500 µL/min/mg in data set [2] and > 400 µL/min/mg in data set [7]. The compound further yielded a logD in data set [6] of 2.62.

For the compound `O=C(NCC1(c2ccccc2)CCCC1)N1CCC(c2nc(-c3ccc4ccccc4n3)no2)CC1`, the results for the 50% inhibitory concentration (IC50) in data set [3], in data set [4] and in data set [5] were 410 nM, 810 nM and 4500 nM, respectively.

Take `O=C(NCC1(CO)CCCC1)N1CCC(c2nc(-c3ccc4ccccc4n3)no2)CC1`: the IC50 was 600 nM in data set [3], 910 nM in data set [4] and 6900 nM in data set [5].

Consider `O=C(NCC1(C(=O)N2CCCCC2)CCCC1)N1CCC(c2nc(-c3ccc4ccccc4n3)no2)CC1`, for which the IC50 in data set [4] stood at 230 nM; in data set [5], 7000 nM.

Regarding `CC(=O)NC1(CNC(=O)N2CCC(c3nc(-c4ccc5ccccc5n4)no3)CC2)CCCC1`, the IC50 in data set [3] amounted to 190 nM; in data set [4] it was 320 nM; in data set [5], 13000 nM.

On to `CC(C)(C)OC(=O)NC1(CNC(=O)N2CCC(c3nc(-c4ccc5ccccc5n4)no3)CC2)CCCC1`, for which the IC50 in data set [3] is 2000 nM; in data set [4], 2000 nM; in data set [5], 14000 nM.

`O=C(NCCN1CCOCC1)N1CCC(c2nc(-c3ccc4ccccc4n3)no2)CC1`: the results for the IC50 in data set [3], in data set [4] and in data set [5] were 2500 nM, 4900 nM and 3400 nM, respectively.

As for `CC(C)(CNC(=O)N1CCC(c2nc(-c3ccc4ccccc4n3)no2)CC1)N1CCOCC1`, the figures for the microsomal CLint in data set [2] and in data set [7] were > 300 µL/min/mg and 112 µL/min/mg, respectively. The figures for the concentration for half-maximal inhibition (IC50) in data set [3], in data set [4] and in data set [5] were 450 nM, 290 nM and 670 nM, respectively.

In the case of `O=C(NCC1(N2CCOCC2)CCCCC1)N1CCC(c2nc(-c3ccc4ccccc4n3)no2)CC1`, the IC50 in data set [1] amounted to 4300 nM; in data set [3] it was 140 nM; in data set [4], 23 nM; in data set [5] it was 72 nM. Moreover, the intrinsic clearance (microsomal CLint) in data set [2] and in data set [7] was > 500 µL/min/mg in each case.

For the compound `O=C(NCC1(N2CCOCC2)CCCCCC1)N1CCC(c2nc(-c3ccc4ccccc4n3)no2)CC1`, the IC50 stood at 330 nM in data set [3], 240 nM in data set [4] and 480 nM in data set [5].

As for `O=C(NCC1(N2CCCC2)CCCC1)N1CCC(c2nc(-c3ccc4ccccc4n3)no2)CC1`, the IC50 in data set [1] was 7100 nM; in data set [3], 69 nM; in data set [4], 32 nM; in data set [5] it was 42 nM. Further, the intrinsic clearance (microsomal CLint) is 100 µL/min/mg in data set [2] and 52 µL/min/mg in data set [7].

As a reminder, the clearance is the rate of elimination divided by the concentration. A low value points to a low capacity for elimination. `O=C(NCC1(N2CCCCC2)CCCC1)N1CCC(c2nc(-c3ccc4ccccc4n3)no2)CC1`: the values for the microsomal CLint in data set [2] and in data set [7] were 160 µL/min/mg and 49 µL/min/mg, respectively. In addition, the clearance in data set [8] is > 100 mL/min/kg. For the same compound, the IC50 in data set [3] was 100 nM; in data set [4], 46 nM; in data set [5] it was 51 nM.

With `CCN(CC)C1(CNC(=O)N2CCC(c3nc(-c4ccc5ccccc5n4)no3)CC2)CCCC1`, the IC50 is 9400 nM in data set [1], 120 nM in data set [3], 55 nM in data set [4] and 46 nM in data set [5]. Besides, the microsomal CLint is > 200 µL/min/mg in data set [2] and 98 µL/min/mg in data set [7].

For the compound `CN(C)C1(CNC(=O)N2CCC(c3nc(-c4ccc5ccccc5n4)no3)CC2)CCCC1`, the IC50 in data set [1] turned out to be 38000 nM; in data set [3], 310 nM; in data set [4] it was 300 nM; in data set [5], 370 nM. The intrinsic metabolic clearance (microsomal CLint) in data set [2] came out at 27 µL/min/mg; in data set [7], 40 µL/min/mg.

`NC1(CNC(=O)N2CCC(c3nc(-c4ccc5ccccc5n4)no3)CC2)CCCC1`: the half-inhibitory concentration (IC50) in data set [3] was 350 nM; in data set [4] it was 630 nM; in data set [5], 790 nM.

Regarding `CCNC1(CNC(=O)N2CCC(c3nc(-c4ccc5ccccc5n4)no3)CC2)CCCC1`, the IC50 was determined as 24000 nM in data set [1], 88 nM in data set [3], 46 nM in data set [4] and 91 nM in data set [5]. Besides, the values for the microsomal CLint in data set [2] and in data set [7] were 51 µL/min/mg and 7 µL/min/mg, respectively.

Turning to `CC(C)NC1(CNC(=O)N2CCC(c3nc(-c4ccc5ccccc5n4)no3)CC2)CCCC1`, the IC50 in data set [3] turned out to be 25 nM; in data set [4], 16 nM; in data set [5] it was 58 nM.

With `O=C(NCC1(NC2CCCCC2)CCCC1)N1CCC(c2nc(-c3ccc4ccccc4n3)no2)CC1`, the concentration for half-maximal inhibition (IC50) came out at 430 nM in data set [3], 140 nM in data set [4] and 520 nM in data set [5].

`O=C(NCC1(N2CCC(F)CC2)CCCC1)N1CCC(c2nc(-c3ccc4ccccc4n3)no2)CC1`: the IC50 came to 90 nM in data set [3], 110 nM in data set [4] and 200 nM in data set [5].

For the compound `O=C(NCC1(N2CCC(F)(F)CC2)CCCC1)N1CCC(c2nc(-c3ccc4ccccc4n3)no2)CC1`, the IC50 was 100 nM in data set [3], 180 nM in data set [4] and 950 nM in data set [5].

Take `COC1CCN(C2(CNC(=O)N3CCC(c4nc(-c5ccc6ccccc6n5)no4)CC3)CCCC2)CC1`: the IC50 in data set [3] was found to be 260 nM; in data set [4], 210 nM; in data set [5] it was 530 nM.

On to `CN1CCN(C2(CNC(=O)N3CCC(c4nc(-c5ccc6ccccc6n5)no4)CC3)CCCC2)CC1`, for which the values for the IC50 in data set [3], in data set [4] and in data set [5] were 450 nM, 510 nM and 400 nM, respectively.

Consider `O=C(NCC(c1ccccc1)N1CCCCC1)N1CCC(c2nc(-c3ccc4ccccc4n3)no2)CC1` (stereo not given), for which the IC50 in data set [3] stood at 130 nM; in data set [4], 210 nM; in data set [5], 330 nM.

Consider `O=C(NCC(c1ccccn1)N1CCOCC1)N1CCC(c2nc(-c3ccc4ccccc4n3)no2)CC1` (stereo not given), for which the IC50 came to 790 nM in data set [3], 2700 nM in data set [4] and 4200 nM in data set [5].

In the case of `O=C(NCC(c1cccnc1)N1CCOCC1)N1CCC(c2nc(-c3ccc4ccccc4n3)no2)CC1` (stereo not given), the results for the concentration for half-maximal inhibition (IC50) in data set [3], in data set [4] and in data set [5] were 4200 nM, 2600 nM and 9900 nM, respectively.

Turning to `O=C(NCC(c1ccncc1)N1CCOCC1)N1CCC(c2nc(-c3ccc4ccccc4n3)no2)CC1` (stereo not given), the IC50 in data set [3] came to 8200 nM; in data set [4], 8600 nM; in data set [5], 17000 nM.

Take `CCN1CCCC1CNC(=O)N1CCC(c2nc(-c3ccc4ccccc4n3)no2)CC1` (stereo not given): the half-inhibitory concentration (IC50) in data set [4] came out at 290 nM; in data set [5] it was 490 nM.

On to `CC(C)N1CCCC1CNC(=O)N1CCC(c2nc(-c3ccc4ccccc4n3)no2)CC1` (stereo not given), for which the microsomal CLint in data set [2] amounted to 19 µL/min/mg; in data set [7], 10 µL/min/mg. In addition, the clearance in data set [8] was > 100 mL/min/kg. For the same compound, the IC50 in data set [3] amounted to 850 nM; in data set [4], 340 nM; in data set [5], 650 nM.

Turning to `CCN1CCCCC1CNC(=O)N1CCC(c2nc(-c3ccc4ccccc4n3)no2)CC1` (stereo not given), the IC50 came to 130 nM in data set [3], 64 nM in data set [4] and 80 nM in data set [5].

With `CCN1CCOCC1CNC(=O)N1CCC(c2nc(-c3ccc4ccccc4n3)no2)CC1` (stereo not given), the IC50 is 230 nM in data set [3], 300 nM in data set [4] and 390 nM in data set [5].

As to `O=C(NCC1NCCc2ccccc21)N1CCC(c2nc(-c3ccc4ccccc4n3)no2)CC1` (stereo not given), the IC50 came out at 960 nM in data set [3], 380 nM in data set [4] and 600 nM in data set [5].

On to `CN1CCc2ccccc2C1CNC(=O)N1CCC(c2nc(-c3ccc4ccccc4n3)no2)CC1` (stereo not given), for which the IC50 in data set [3] was found to be 380 nM; in data set [4], 360 nM; in data set [5], 470 nM.

Regarding `Cn1c(-c2noc(C3CCN(C(=O)NCC4(N5CCOCC5)CCCC4)CC3)n2)nc2ccccc21`, the results for the IC50 in data set [3], in data set [4] and in data set [5] were 18 nM, 17 nM and 15 nM, respectively.

As for `Cn1c(-c2noc(C3CCN(C(=O)NCC4(N5CCCCC5)CCCC4)CC3)n2)nc2ccccc21`, the 50% inhibitory concentration (IC50) in data set [3] was found to be 23 nM; in data set [4], 21 nM; in data set [5], 19 nM.

`O=C(NCC1(N2CCOCC2)CCCC1)N1CCN(c2nc(-c3ccc4ccccc4n3)no2)CC1`: the half-inhibitory concentration (IC50) amounted to 16 nM in data set [3], 10 nM in data set [4] and 15 nM in data set [5].

In the case of `O=C(NCC1(N2CCCCC2)CCCC1)N1CCN(c2nc(-c3ccc4ccccc4n3)no2)CC1`, in data set [8], the clearance is > 100 mL/min/kg. Besides, the IC50 is 40 nM in data set [3], 8 nM in data set [4] and 10 nM in data set [5].

For the compound `Cn1c(-c2noc(N3CCN(C(=O)NCC4(N5CCCCC5)CCCC4)CC3)n2)nc2ccccc21`, the IC50 in data set [3] was 4 nM; in data set [4] it was 5 nM; in data set [5] it was 6 nM.

In the case of `O=C(NC1CCC(F)(F)CC1)N1CCN(c2nc(-c3ccc4ccccc4n3)no2)CC1`, the IC50 came to 5 nM in data set [3], 13 nM in data set [4] and 13 nM in data set [5].

The values above are taken from ChEMBL document CHEMBL1821583 (Bioorg Med Chem Lett, 2011).
